Results on one substance are retold here after publication PMC6151491, “In Vitro Evaluation of Third Generation PAMAM Dendrimer Conjugates” (Molecules : A Journal of Synthetic Chemistry and Natural …, 2017).

This test concerns Caco-2 cells. As to the kind of experiment: Lactate dehydrogenase leakage (LDH) assay. As to conditions: 3 h incubation, mean ± S.D., n = 4, read-out: IC50 (viability of Caco-2 cells, LDH assay). It counts as cell-based, Human. The method, then: Human intestinal adenocarcinoma cells (Caco-2) (passage 110–120) were seeded at 10,000 cells/well in 96-well plates and maintained at 37 °C in an atmosphere of 5% CO2 and 95% relative humidity in Dulbecco’s Modified Eagle’s Medium (DMEM) supplemented with 1% foetal bovine serum, 1% non-essential amino acids, 50 IU/mL penicillin. and […] streptomycin. After 24 h the medium was removed and the cells were washed in phosphate buffered saline and 200 µL Hanks Balanced Salt Solution (HBSS) containing G3 PAMAM dendrimer, conjugates or G0 PAMAM dendrimer at different concentrations (concentrations were calculated using the average molecular weight (Table 1) for each conjugate as a whole macromolecule). Caco-2 cell monolayers were also treated with blank HBSS and 1% Triton X-100 as low and high controls, respectively. After 3 h of incubation at 37 °C, 100 µL/well supernatant was removed carefully and transferred into corresponding wells of an optically clear 96-well flat bottom microplate. LDH leakage in the compartment was quantified using an LDH assay kit.
The percentage was calculated using the following equation:Cytotoxicity (%) = ((exp. − low control)/(high control − low control)) × 100 where exp. is the experimental value.

One may read the IC50 as the concentration that inhibits the measured activity by half.

On to “lauroyl-G0-diethylene glycol-naproxen [L-G0-deg-NAP]”, for which the IC50 worked out at 3.18 ± 0.455 mM.
